# Reference: patent US4925664A, “Spider toxins and methods for their use as blockers of calcium channels and amino acid receptor function” (priority 1986, dated 1990)
# Test system: transmission between the cochlear nerve afferents and the cochlear nucleus neurons
# Test: Blockade of synaptic transmission in chick cochlear nucleus, in vitro chick brain stem preparation (field potential)
# Type: cell-based
# Details: conventional EAA receptor antagonists and agonists
# Procedure: The toxin was bath-applied to cochlear nucleus neurons in an in vitro preparation of chick brain stem.
# In order to test the effects of the spider venom, late embryos or hatchling chickens were used in all experiments. Brain stems were removed and maintained in vitro using methods known and described in the art, except that the temperature in the recording chamber was held at 32° C. The tissue was superfused in avian Tyrode solution at about 1 ml per minute.
# The field potential evoked by direct electrical stimulation of the cochlear nerve was recorded with a 4M potassium acetate electrode. The short latency component of the field potential reflects the compound action […] of cochlear nerve axons. This afferent volley is followed by a negativity representing the postsynaptic response of NM neurons.
row,SMILES,concentration required to completely suppress transmission
1,"O=C(O)[C@H]1CCCN[C@H]1C(=O)O (relative stereo) [cis-2,3-piperidine dicarboxylic acid]",millimolar range
2,N[C@H](CCC(=O)NCC(=O)O)C(=O)O [-D-glutamylglycine],millimolar range
3,N[C@@H](Cn1oc(=O)[nH]c1=O)C(=O)O [quisqualate],millimolar concentrations
